In US6740673B2, “Quarternary ammonium compounds” (UCB Farchim SA, priority 1998, dated 2004):

System: cough responses induced by citric acid (1M) aerosol in conscious guinea-pigs
Experiment: Antitussive activity against citric acid aerosol-induced cough in conscious guinea-pigs
Format: in vivo, guinea-pig (male albino Dunkin-Hartley)
Settings: aerosol pre-treatment at 10.0 mg/ml immediately before citric acid (1M) exposure; for inhibition of cough responses compared with vehicle: vs vehicle (distilled water), 15 minute observation period
From the text: The following method was one of the general methods available to determine the antitussive activity of the compounds of the present invention.
Male albino Dunkin-Hartley strain guinea-pigs (weight 300-400 g) were supplied by Harlan UK Ltd., Bicester, Oxon, UK.
The method used was modified from that described by Adcock J. J., Schneider C. and Smith T. W., “Effects of Morphine and a Novel Opioid Pentapeptide BW443C, on Cough, Nociception and Ventilation in the Unanaesthetized Guinea-pig”, Br. J. Pharmacol., 93, 93-100 (1988). Individual conscious guinea-pigs were placed unrestrained into a sealed purpose built perspex exposure chamber (3,000 cm^3 volume) and allowed to acclimatize prior to aerosol administration.
Cylinder air was introduced into the exposure chamber at a flow rate of 1 liter/min, maintained by a needle valve and monitored by a rotameter. From the rotameter the air passed through the cup of an ultrasonic nebulizer (DeVilbis UltraNeb 2000) which was used to generate aerosols of drug or citric acid at 0.15 ml/min. A Fleisch pneumotachograph, connected to a differential pressure transducer (Grass model PT5) was attached to the outflow from the exposure chamber and provided a measurement of airflow from the chamber. […]
Cough responses were induced by exposure to an aerosol of citric acid (1M) for 10 minutes. Animals were continuously monitored by trained observer, and the number of coughs were counted during a 15 minute period from commencement of the citric acid aerosol administration. […]
The three types of response were differentiated primarily by sound and visual observation. […] Data recorded for individual guinea-pigs on the Poh-Ne-Mah system was stored on an optical disk. Each cough was marked on the Grass polygraph paper trace, and from these record numbers, frequency and time of onset of coughs were determined. […]
Quantities of drugs were weighed out and dissolved in a vehicle. […] The sequence of pre-treatment administration was determined according to a 4×4 Latin Square design. […]

SMILES	inhibition of cough responses compared with vehicle	prolongation of mean latency of cough onset (time to first recorded cough)
C[N+](C)(CC(=O)Nc1ccccc1)CC(=O)N1CCc2ccccc21.[Cl-] [Compound 2, N-[(1-Indolinyl)carbonylmethyl]-N-(phenylcarbamoylmethyl) dimethylammonium chloride]	56%	–
CC[N+](CC)(CC)CC(=O)N1CCc2ccccc21 [Compound 3, N-[(1-Indolinyl)carbonylmethyl]triethylammonium chloride]	36%	2.5 fold
